According to patent US10940188B2, “Compounds and methods for treatment and prevention of Flavivirus infection” (priority 2016, dated 2021):
Blank lines part the entries; values can stand above or below the molecule they belong to.

Legend:
[1] = system: ZIKV-induced cell death in hNPCs; assay: ATP cell viability assay for ZIKV-induced cell death, hNPCs; type: cell-based, human; conditions: ZIKV-infected hNPCs
Experimental: (§1) The reagent was reconstituted and prepared as described by the manufacturer. In order to measure the cell death caused by ZIKV infection, cells were cultured for 16 hours at 37° C. with 5% CO2 in assay plates, followed by the addition of ZIKV solution and incubation at 37° C. with 5% CO2 for 72 hours. ATPlite, the ATP monitoring reagent, was then added to the assay plates and they were incubated for 15 minutes. The resulting luminescence was measured using the ViewLux plate reader (Perkin Elmer). Data were normalized using the wells without cells as a control for 100% cell killing, and cell-containing wells without ZIKV infection were used as full cell viability (0% cell killing).
Human NPCs were seeded onto PDL coated 1536-well assay plates at 250 cells per 3 μl/well and incubated at 37° C. in 5% CO2 for 16 hours. Test compounds dissolved in DMSO were transferred to assay plates at a volume of 23 nl/well by an automated pintool workstation (Wako Automation, San Diego, Calif.). Compounds were incubated with cells for 30 minutes at 37° C. in 5% CO2, immediately followed by the addition of 2 μl/well of ZIKV. Incubation time of compound-treated cells with ZIKV varied based on assay format. Experiments measuring virus-induced caspase 3/7 activity required a 6 hour incubation of ZIKV in the presence compounds at 37° C. in 5% CO2. Following this incubation, 3.5 μl/well of caspase 3/7 reagent mixture was added to assay plates. The plates were incubated for 30 minutes at room temperature, and the resultant luminescence signal was measured using a ViewLux plate reader (Perkin Elmer). Experiments measuring virus-induced cell death required a 72-hour incubation of ZIKV in the presence of compounds at 37° C. in 5% CO2. Following this incubation, 3.5 μl/well of ATP content detection reagent was added to assay plates, incubated for 30 minutes at the room temperature, and the resultant luminescence signal was measured in a ViewLux plate reader.
as §1, with “The ATPlite luminescence assay system assay kit (PerkinElmer) was used to determine cell viability. The reagent” for “The reagent”, “by the manufacture. In order” for “by the manufacturer. In order”, “followed by addition of” for “followed by the addition of”, “plates and incubated for” for “plates and they were incubated for”, “Elmer). Data was normalized using” for “Elmer). Data were normalized using”
Human NPCs were seeded onto PDL coated 1536-well assay plates at 250 cells per 3 μl/well and incubated at 37° C. in 5% CO2 for 16 hours. Test compounds dissolved in DMSO were transferred to assay plates at a volume of 23 nl/well by an automated pintool workstation (Wako Automation, San Diego, Calif.). Compounds were incubated with cells for 30 minutes at 37° C. in 5% CO2, immediately followed by the addition of 2 μl/well of ZIKV. Incubation time of compound-treated cells with ZIKV varied based on assay format. Experiments measuring virus induced caspase 3/7 activity required a 6 hour incubation of ZIKV in the presence compounds at 37° C. in 5% CO2. Following this incubation, 3 μl/well of caspase 3/7 reagent mixture was added to assay plates, incubated for 30 minute at room temperature, and the resultant luminescence signal was measured using a ViewLux plate reader (Perkin Elmer). Experiments measuring the virus induced cell death required a 72 hour incubation of ZIKV in the presence of compounds at 37° C. in 5% CO2. Following this incubation, 3 μl/well of ATP content detection reagent was added to assay plates, incubated for 30 minute at room temperature, and the resultant luminescence signal was measured in a ViewLux plate reader.

[2] = system: ZIKV-induced caspase 3/7 activity in human astrocytes; assay: Caspase 3/7 activity assay, ZIKV-infected human astrocytes; type: cell-based; conditions: Astrocyte, ZIKV-infected human astrocytes; for IC50: read-out: Caspase 3 (IC50, uM) Astrocyte; for Emax: read-out: Caspase 3 (efficacy, %) Astrocyte
Summary of the method: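 Human NPCs, SNB-19 cells or astrocytes seeded 16 h, compound added 30 min before ZIKV, then 6 h infection at 37 °C. Caspase-Glo 3/7 luminescence after 30 min at room temperature, normalized to uninfected cells (0%) and ZIKV-infected cells (100%).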

[3] = system: ZIKV-induced cell death in human astrocytes; assay: ATP cell viability assay for ZIKV-induced cell death, human astrocytes; type: cell-based; conditions: ZIKV-infected human astrocytes

SMILES: CCC(C(=O)O)c1ccc(N2Cc3ccccc3C2=O)cc1 (stereo not shown) [Indobufen]
- Cell viability (efficacy, %) NPCs [1]: 0.0%
- IC50 [2]: 6.52 µM
- Emax [2]: 86.3%
- Cell viability (efficacy, %) Astrocyte [3]: 0.0%

SMILES: N#CC1(c2ccc(NC(=O)c3cccnc3NCc3ccncc3)cc2)CCCC1 [Apatinib]
- Cell viability (efficacy, %) NPCs [1]: 0.0%
- IC50 [2]: 19.5 µM
- Emax [2]: 57.9%
- Cell viability (efficacy, %) Astrocyte [3]: 0.0%

SMILES: O=C(Oc1ccccc1)c1cccc(C(=O)Oc2ccccc2)c1 [Diphenyl isophthalate]
- Cell viability (efficacy, %) NPCs [1]: 0.0%
- IC50 [2]: 6.68 µM
- Emax [2]: 104%
- Cell viability (efficacy, %) Astrocyte [3]: 0.0%

SMILES: O=C(Nc1ccc(C(=O)O)c(O)c1)c1ccccc1 [Benzoylpas]
- Cell viability (efficacy, %) NPCs [1]: 0.0%
- IC50 [2]: 5.81 µM
- Emax [2]: 94.9%
- Cell viability (efficacy, %) Astrocyte [3]: 0.0%

Continued, in another order:

- IC50 [2]: 10.3 µM
SMILES: c1ccc2[nH]c(-c3cscn3)nc2c1 [Thiabendazole]
- Cell viability (efficacy, %) NPCs [1]: 0.0%
- Emax [2]: 81%
- Cell viability (efficacy, %) Astrocyte [3]: 0.0%

- IC50 [2]: 21.8 µM
SMILES: O=C(c1ccccc1)c1ccc2n1CCC2C(=O)O (stereo not shown) [Ketorolac tromethamine]
- Cell viability (efficacy, %) NPCs [1]: 0.0%
- Emax [2]: 61.7%
- Cell viability (efficacy, %) Astrocyte [3]: 0.0%

- IC50 [2]: 11.3 µM
SMILES: CN1CCN(c2cc3c(nn2)Oc2ccccc2N3C)CC1 [Pipofezine]
- Cell viability (efficacy, %) NPCs [1]: 0.0%
- Emax [2]: 56.3%
- Cell viability (efficacy, %) Astrocyte [3]: 0.0%
